In brackets after ≈: the same amount, converted by molar mass.
Columns and labels:
[1] = molecular target: T1, Carnitine O-palmitoyltransferase 1, liver isoform (Homo sapiens, UniProt P50416); experiment: (§1) SUPPLEMENTARY: Inhibition of Carnitine palmitoyltransferase 1, liver isoform
T1 sequence (P50416 whole entry): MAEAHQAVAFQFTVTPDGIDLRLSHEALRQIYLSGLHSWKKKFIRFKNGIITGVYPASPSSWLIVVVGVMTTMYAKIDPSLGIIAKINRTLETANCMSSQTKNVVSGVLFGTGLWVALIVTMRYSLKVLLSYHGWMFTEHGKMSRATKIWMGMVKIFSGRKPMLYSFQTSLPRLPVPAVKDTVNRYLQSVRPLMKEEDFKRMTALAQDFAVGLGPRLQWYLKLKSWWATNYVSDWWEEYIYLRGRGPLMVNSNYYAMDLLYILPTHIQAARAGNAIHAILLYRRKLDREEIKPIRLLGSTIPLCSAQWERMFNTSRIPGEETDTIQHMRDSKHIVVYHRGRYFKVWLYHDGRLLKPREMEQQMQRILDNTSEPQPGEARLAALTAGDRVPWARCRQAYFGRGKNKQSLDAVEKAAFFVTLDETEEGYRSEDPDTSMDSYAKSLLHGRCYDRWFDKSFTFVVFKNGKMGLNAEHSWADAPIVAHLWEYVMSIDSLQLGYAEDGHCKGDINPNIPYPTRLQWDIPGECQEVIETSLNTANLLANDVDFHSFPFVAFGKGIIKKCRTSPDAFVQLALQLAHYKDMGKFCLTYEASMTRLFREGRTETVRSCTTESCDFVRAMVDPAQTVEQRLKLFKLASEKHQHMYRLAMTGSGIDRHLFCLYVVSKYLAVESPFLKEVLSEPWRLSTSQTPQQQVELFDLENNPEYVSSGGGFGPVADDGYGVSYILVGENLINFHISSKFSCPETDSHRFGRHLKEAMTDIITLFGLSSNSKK

[2] = molecular target: T2, Carnitine O-palmitoyltransferase 1, liver isoform (Rattus norvegicus, UniProt P32198); experiment: as §1
T2 sequence (P32198 whole entry): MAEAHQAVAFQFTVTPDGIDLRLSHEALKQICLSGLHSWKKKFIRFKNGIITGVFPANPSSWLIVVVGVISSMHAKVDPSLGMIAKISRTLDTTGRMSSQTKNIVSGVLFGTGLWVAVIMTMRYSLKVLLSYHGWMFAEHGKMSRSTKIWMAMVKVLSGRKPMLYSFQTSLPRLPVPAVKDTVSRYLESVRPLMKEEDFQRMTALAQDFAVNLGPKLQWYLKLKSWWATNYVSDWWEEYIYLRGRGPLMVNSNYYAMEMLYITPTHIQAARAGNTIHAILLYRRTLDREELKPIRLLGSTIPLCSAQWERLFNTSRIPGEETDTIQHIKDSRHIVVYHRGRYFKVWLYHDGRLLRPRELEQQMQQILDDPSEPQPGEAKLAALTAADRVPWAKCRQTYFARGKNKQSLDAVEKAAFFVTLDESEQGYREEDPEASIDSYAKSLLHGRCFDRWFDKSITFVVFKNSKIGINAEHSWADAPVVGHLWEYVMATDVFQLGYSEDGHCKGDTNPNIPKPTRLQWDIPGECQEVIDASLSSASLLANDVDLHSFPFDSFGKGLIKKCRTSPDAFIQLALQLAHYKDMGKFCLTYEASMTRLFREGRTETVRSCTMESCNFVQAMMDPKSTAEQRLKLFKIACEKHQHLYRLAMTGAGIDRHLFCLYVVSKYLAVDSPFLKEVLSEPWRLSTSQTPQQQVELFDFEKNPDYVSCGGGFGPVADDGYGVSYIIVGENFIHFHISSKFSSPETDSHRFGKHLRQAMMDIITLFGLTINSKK

[3] = SUPPLEMENTARY: PAMPA permeability assay; assay type: physicochemical; details: read-out: Permeability
[4] = SUPPLEMENTARY: Lyophilisation Solubility Assay (LYSA); assay type: physicochemical; details: read-out: Kinetic_solubility
[5] = molecular target: T3, Carnitine O-palmitoyltransferase 1, muscle isoform (Homo sapiens, UniProt Q92523); experiment: SUPPLEMENTARY: Inhibition of Carnitine palmitoyltransferase 1, muscle isoform; set-up: species or system Muscle tissue
T3 sequence (Q92523 whole entry): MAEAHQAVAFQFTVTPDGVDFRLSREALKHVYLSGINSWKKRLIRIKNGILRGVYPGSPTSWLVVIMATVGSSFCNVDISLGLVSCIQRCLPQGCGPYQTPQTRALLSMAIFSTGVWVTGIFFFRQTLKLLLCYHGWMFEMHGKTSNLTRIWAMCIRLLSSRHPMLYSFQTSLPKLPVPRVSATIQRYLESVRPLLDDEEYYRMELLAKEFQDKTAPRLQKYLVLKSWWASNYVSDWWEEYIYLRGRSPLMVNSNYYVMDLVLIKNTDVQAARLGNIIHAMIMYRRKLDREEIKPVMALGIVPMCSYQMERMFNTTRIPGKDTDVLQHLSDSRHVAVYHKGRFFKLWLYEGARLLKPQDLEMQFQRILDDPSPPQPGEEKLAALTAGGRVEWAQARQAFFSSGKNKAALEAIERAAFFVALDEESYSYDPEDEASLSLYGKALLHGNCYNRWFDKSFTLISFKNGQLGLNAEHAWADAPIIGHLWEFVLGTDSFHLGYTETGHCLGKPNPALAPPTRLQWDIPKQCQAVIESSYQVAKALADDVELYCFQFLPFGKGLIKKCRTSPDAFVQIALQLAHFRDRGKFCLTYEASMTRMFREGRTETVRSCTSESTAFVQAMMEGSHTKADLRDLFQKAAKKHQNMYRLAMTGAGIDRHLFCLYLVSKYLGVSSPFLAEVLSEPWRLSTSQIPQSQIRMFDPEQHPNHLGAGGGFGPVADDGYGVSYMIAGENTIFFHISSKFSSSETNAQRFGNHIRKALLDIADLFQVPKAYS

[6] = SUPPLEMENTARY: Lipophilicity (log D) Determination by high-throughput shake-flask; assay type: physicochemical; details: octanol/water
[7] = molecular target: T4, Carnitine O-palmitoyltransferase 2, mitochondrial (Rattus norvegicus, UniProt P18886); experiment: (§2) SUPPLEMENTARY: Inhibition of Carnitine palmitoyltransferase 2
T4 sequence (P18886 whole entry): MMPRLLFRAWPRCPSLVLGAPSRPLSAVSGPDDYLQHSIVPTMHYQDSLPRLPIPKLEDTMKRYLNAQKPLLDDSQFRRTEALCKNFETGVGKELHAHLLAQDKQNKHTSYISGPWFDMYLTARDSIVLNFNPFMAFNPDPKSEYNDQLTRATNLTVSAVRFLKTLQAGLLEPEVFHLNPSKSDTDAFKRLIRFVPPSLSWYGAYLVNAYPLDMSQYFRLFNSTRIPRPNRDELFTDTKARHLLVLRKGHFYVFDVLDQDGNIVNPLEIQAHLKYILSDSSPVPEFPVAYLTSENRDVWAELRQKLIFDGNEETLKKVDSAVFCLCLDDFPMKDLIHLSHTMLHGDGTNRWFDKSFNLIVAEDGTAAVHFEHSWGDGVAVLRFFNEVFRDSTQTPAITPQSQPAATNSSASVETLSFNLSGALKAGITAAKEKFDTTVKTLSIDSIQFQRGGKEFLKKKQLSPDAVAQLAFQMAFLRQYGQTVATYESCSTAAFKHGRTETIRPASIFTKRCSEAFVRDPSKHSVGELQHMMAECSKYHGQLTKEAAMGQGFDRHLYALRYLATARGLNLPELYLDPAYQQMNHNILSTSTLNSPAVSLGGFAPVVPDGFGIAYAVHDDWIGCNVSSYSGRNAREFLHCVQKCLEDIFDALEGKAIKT

[8] = molecular target: T5, Carnitine O-palmitoyltransferase 2, mitochondrial (Homo sapiens, UniProt P23786); experiment: as §2
T5 sequence (P23786 whole entry): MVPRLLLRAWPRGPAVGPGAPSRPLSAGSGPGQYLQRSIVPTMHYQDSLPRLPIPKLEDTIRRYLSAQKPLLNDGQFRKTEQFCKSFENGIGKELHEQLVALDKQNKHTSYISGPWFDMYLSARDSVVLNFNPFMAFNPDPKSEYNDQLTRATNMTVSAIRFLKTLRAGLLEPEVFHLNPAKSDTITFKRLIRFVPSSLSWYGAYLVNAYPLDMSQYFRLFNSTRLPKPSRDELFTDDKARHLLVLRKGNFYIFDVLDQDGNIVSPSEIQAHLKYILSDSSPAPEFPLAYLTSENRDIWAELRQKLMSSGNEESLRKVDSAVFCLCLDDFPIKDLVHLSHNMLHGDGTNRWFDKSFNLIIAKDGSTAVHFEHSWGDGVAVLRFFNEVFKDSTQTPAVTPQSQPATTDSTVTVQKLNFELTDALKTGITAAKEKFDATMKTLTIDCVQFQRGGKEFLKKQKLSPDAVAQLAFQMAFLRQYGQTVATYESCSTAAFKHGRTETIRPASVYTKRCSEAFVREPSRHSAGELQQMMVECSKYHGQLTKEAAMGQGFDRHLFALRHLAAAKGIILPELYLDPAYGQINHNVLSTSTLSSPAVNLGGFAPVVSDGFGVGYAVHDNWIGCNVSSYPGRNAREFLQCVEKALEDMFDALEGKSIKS

SMILES | IC50 [1] [nM] | IC50 [2] [nM] | Papp [3] [×10⁻⁶ cm/s] | solubility kinetic [4] [µg/mL] | IC50 [5] [nM] | logD [6] | IC50 [7] [nM] | IC50 [8] [nM]
NS(=O)(=O)c1cccc(-c2noc([C@H]3CCCCN3C(=O)COc3ccccc3)n2)c1 | 87 | 205 | 1.63 | 33 (≈ 74.6 µM) | > 100000 | 2.17 | 57900 | 61400
COc1ccc(Cl)cc1S(=O)(=O)N1C[C@@H](C)c2ccc(C(=O)Nc3ccc(C(=O)O)cc3)cc21 | 36.7 | 28.9 | 2.86 | 6 (≈ 12 µM) | 6780 | 2.98 | 1420 | 453
COc1ccc(Cl)cc1S(=O)(=O)N1CCOc2ccc(C(=O)Nc3ccc(C(=O)O)nc3)cc21 | 232 | 575 | 0.57 | 195 (≈ 387 µM) | 22600 | -0.42 | 24600 | 5450
COc1ccc(Cl)cc1Cc1cn(C)c2ccc(C(=O)Nc3nc(CC(=O)O)cs3)cc12 | 40.6 | 54.8 | 0.51 | 19 (≈ 40.4 µM) | 2410 | 2.39 | > 100000 | > 100000
CCNC(=O)Nc1cccc(-c2n[nH]c([C@H]3CCCCN3C(=O)COc3ccccc3)n2)c1 | 52.3 | 811 | 2.23 | 69 (≈ 154 µM) | 97000 | 2.84 | 62900 | 57500
COc1ccc(Cl)cc1S(=O)(=O)N1CC(C(=O)O)Oc2ccc(C(=O)Nc3ccc(F)cc3)cc21 (configuration not stated) | 80.9 | 131 | 0.06 | 347 (≈ 666 µM) | 99900 | -0.22 | > 100000 | > 100000
O=C(COc1ccccc1)N1CCCC[C@@H]1c1noc(-c2cccc(-n3cc[nH]c3=O)c2)n1 | 59.9 | 458 | 7.36 | 70 (≈ 157 µM) | 83300 | 2.66 | 69700 | 29700
COc1ccc(Cl)cc1S(=O)(=O)N1CCOc2c(F)cc(C(=O)Nc3ccc(CC(=O)O)cc3)cc21 | 150 | 84.7 | 2.79 | 565 (≈ 1060 µM) | 750 | 0.47 | > 100000 | > 100000
CN1CCN(C(=O)COc2ccccc2)[C@@H](c2nc(-c3cccc(C(F)(F)F)c3)n[nH]2)C1 | 37 | 54.7 | 2.31 | 81 (≈ 182 µM) | > 100000 | 3.19 | > 100000 | 94600
COc1ccc(Cl)cc1S(=O)(=O)N1CCOc2ccc(C(=O)Nc3ncc(CC(=O)O)s3)cc21 | 41.6 | 38.6 | 2.18 | 31 (≈ 59.2 µM) | 1430 | 0.05 | > 100000 | > 100000
O=C(O)c1ccc(NC(=O)c2ccc(NS(=O)(=O)c3cc(Cl)cc(Cl)c3)s2)cc1 | 153 | 261 | 0.01 | 378 (≈ 802 µM) | 4380 | -1.09 | > 100000 | > 100000
O=C([C@H]1CCCCN1C(=O)COc1ccccc1)N1Cc2cc(F)c(N3CCOCC3)cc2C1 | 229 | 106 | 8.31 | 70 (≈ 150 µM) | > 100000 | 2.01 | 2010 | 540
O=C(COc1ccccc1)N1CCCC[C@@H]1c1noc(-c2ccc3cnccc3n2)n1 | 188 | 305 | 4.52 | 82 (≈ 197 µM) | > 100000 | 2.52 | > 100000 | 17400
Cc1sc([C@H]2CCCCN2C(=O)COc2ccccc2)nc1-c1cccc(C(=O)O)c1 | 92.3 | 118 | 6.19 | 402 (≈ 921 µM) | 30300 | 0.73 | > 100000 | 53000
